According to patent US9452169B2, “Substituted diketopiperazines and their use as oxytocin antagonists” (Glaxo Group Limited, priority 2003, dated 2016):

Tested on: rats
Conditions: rat, in vivo, 30 mg/kg

CC[C@H](C)[C@@H]1C(=O)N[C@H](C2Cc3ccccc3C2)C(=O)N1[C@@H](C(=O)N1CCOCC1)c1coc(C)n1 [Example 1, (3R,6R)-3-(2,3-dihydro-1H-inden-2-yl)-1-[(1R)-1-(2-methyl-1,3-oxazol-4-yl)-2-(4-morpholinyl)-2-oxoethyl]-6-[(1S)-1-methylpropyl]-2,5-piperazinedione]
adverse toxicological effects: no adverse toxicological effects were observed
